Test results reported in US8835476B2, “Synthesis of novel antimicrobials” (priority 2005, dated 2014).

Experiments:
Assay type in all cases: cell-based
A. anitratus ATCC 19606 = assay: Broth microdilution MIC, ATCC strains; details: Acinetobacter calcoaceticus, ATCC19606; A. anitratus ATCC 19606; read-out: MIC (growth inhibition, microdilution method)
Summary of the method: (§1)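 Tested per NCCLS M7-A6 broth microdilution with an inoculum of 5×10^5 CFU/ml and DMSO controls matching solvent levels. Panels were incubated 16 to 20 hours at 35° C. in ambient air, and the MIC was taken as the lowest concentration inhibiting visible growth.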

B. cepacia ATCC 25416 = assay: Broth microdilution MIC, ATCC strains; details: Burkholderia cepacia, ATCC25416; B. cepacia ATCC 25416; read-out: MIC (growth inhibition, microdilution method)
Summary of the method: as §1

E. coli ATCC 25922 = assay: Broth microdilution MIC, ATCC strains; details: Escherichia coli, ATCC25922, E. coli ATCC 25922; read-out: MIC (growth inhibition, microdilution method)
Summary of the method: as §1

E. faecium ATCC 35667 = assay: Broth microdilution MIC, ATCC strains; details: Enterococcus faecium, ATCC35667, read-out: MIC (growth inhibition, microdilution method)
Summary of the method: as §1

K. pneumoniae ATCC 13883 = assay: Broth microdilution MIC, ATCC strains; details: Klebsiella pneumoniae, ATCC13883; K. pneumoniae ATCC 13883; read-out: MIC (growth inhibition, microdilution method)
Summary of the method: as §1

P. mirabilis ATCC 29245 = assay: Broth microdilution MIC, ATCC strains; details: Proteus mirabilis, ATCC29245; P. mirabilis ATCC 29245; read-out: MIC (growth inhibition, microdilution method)
Summary of the method: as §1

P. vulgaris ATCC 49132 = assay: Broth microdilution MIC, ATCC strains; details: Proteus vulgaris, ATCC49132; P. vulgaris ATCC 49132; read-out: MIC (growth inhibition, microdilution method)
Summary of the method: as §1

Pr. stuartii ATCC 33672 = assay: Broth microdilution MIC, ATCC strains; details: Providencia stuartii, ATCC33672; Pr. stuartii ATCC 33672; read-out: MIC (growth inhibition, microdilution method)
Summary of the method: as §1

[1] = system: S. epidermidis ATCC 14990; assay: Broth microdilution MIC, ATCC strains; details: Staphylococcus epidermidis, ATCC14990; S. epidermidis ATCC 14990; read-out: MIC (growth inhibition, microdilution method)
Summary of the method: as §1

[2] = system: S. liquefaciens ATCC 27592; assay: Broth microdilution MIC, ATCC strains; details: S. liquefaciens ATCC 27592; read-out: MIC (growth inhibition, microdilution method)
Summary of the method: as §1

S. simulans ATCC 27848 = assay: Broth microdilution MIC, ATCC strains; details: Staphylococcus simulans, ATCC27848, read-out: MIC (growth inhibition, microdilution method)
Summary of the method: as §1

S. warneri ATCC 27836 = assay: Broth microdilution MIC, ATCC strains; details: Staphylococcus warneri, ATCC27836; S. warneri ATCC 27836; read-out: MIC (growth inhibition, microdilution method)
Summary of the method: as §1

P. rettgeri CAP = assay: Broth microdilution MIC, reference strains; details: Providencia rettgeri; P. rettgeri (CAP in Table 1); read-out: MIC (growth inhibition, microdilution method)
Summary of the method: as §1

[3] = system: A. baumanii clinical isolates; assay: Broth microdilution MIC, clinical isolate strains (NAUTICA); details: Table 4B; each table row is one clinical isolate; unit assumed
Summary of the method: as §1

[4] = system: B. cepacia clinical isolates; assay: as above; details: Table 4B; each table row is one clinical isolate; unit assumed
Summary of the method: as §1

[5] = system: C. amalonaticus clinical isolates; assay: as above; details: Table 4B; each table row is one clinical isolate; unit assumed
Summary of the method: as §1

[6] = system: C. freundii clinical isolates; assay: as above; details: Table 4B; each table row is one clinical isolate; in µg/mL (unit assumed)
Summary of the method: as §1

[7] = system: C. koseril clinical isolates; assay: as above; details: Table 4B; each table row is one clinical isolate; unit assumed
Summary of the method: as §1

[8] = system: E. aerogenes clinical isolates; assay: as above; details: Table 4B; each table row is one clinical isolate; unit assumed
Summary of the method: as §1

[9] = system: E. cloacae clinical isolates; assay: as above; details: Table 4B; each table row is one clinical isolate; unit assumed
Summary of the method: as §1

[10] = system: E. coli clinical isolates; assay: as above; details: Table 4B; each table row is one clinical isolate; unit assumed
Summary of the method: as §1

[11] = system: K. oxytoca clinical isolates; assay: as above; details: Table 4B; each table row is one clinical isolate; unit assumed
Summary of the method: as §1

[12] = system: K. pneumoniae clinical isolates; assay: as above; details: Table 4B; each table row is one clinical isolate; unit assumed
Summary of the method: as §1

[13] = system: M. morganii clinical isolates; assay: as above; details: Table 4B; each table row is one clinical isolate; unit assumed
Summary of the method: as §1

[14] = system: P. mirabilis clinical isolates; assay: as above; details: Table 4B; each table row is one clinical isolate; unit assumed
Summary of the method: as §1

[15] = system: P. retgerri clinical isolates; assay: as above; details: Table 4B; each table row is one clinical isolate; unit assumed
Summary of the method: as §1

[16] = system: P. stuartii clinical isolates; assay: as above; details: Table 4B; each table row is one clinical isolate; unit assumed
Summary of the method: as §1

[17] = system: P. vulgaris clinical isolates; assay: as above; details: Table 4B; each table row is one clinical isolate; unit assumed
Summary of the method: as §1

[18] = system: S. liquifaciens clinical isolates; assay: as above; details: Table 4B; each table row is one clinical isolate; unit assumed
Summary of the method: as §1

[19] = system: S. maltophilia clinical isolates; assay: as above; details: Table 4B; each table row is one clinical isolate; unit assumed
Summary of the method: as §1

[20] = system: S. marcescens clinical isolates; assay: as above; details: Table 4B; each table row is one clinical isolate; unit assumed
Summary of the method: as §1

| SMILES | MIC (A. anitratus ATCC 19606) [µg/mL] | MIC (B. cepacia ATCC 25416) [µg/mL] | MIC (E. coli ATCC 25922) [µg/mL] | MIC (E. faecium ATCC 35667) [µg/mL] | MIC (K. pneumoniae ATCC 13883) [µg/mL] | MIC (P. mirabilis ATCC 29245) [µg/mL] | MIC (P. vulgaris ATCC 49132) [µg/mL] | MIC (Pr. stuartii ATCC 33672) [µg/mL] | MIC [1] [µg/mL] | MIC [2] [µg/mL] | MIC (S. simulans ATCC 27848) [µg/mL] | MIC (S. warneri ATCC 27836) [µg/mL] | MIC (P. rettgeri CAP) [µg/mL] | MIC, A. BAUMANII [3] [µg/mL] | MIC, B. CEPACIA [4] [µg/mL] | MIC, C. AMALONATICUS [5] [µg/mL] | MIC, C. FREUNDII [6] | MIC, C. KOSERI [7] [µg/mL] | MIC, E. AEROGENES [8] [µg/mL] | MIC, E. CLOACAE [9] [µg/mL] | other results |
| --- | --- | --- | --- | --- | --- | --- | --- | --- | --- | --- | --- | --- | --- | --- | --- | --- | --- | --- | --- | --- | --- |
| Cn1nnnc1-c1cc(-c2ccc(F)cc2)sc1-c1ccc(F)cc1 [DNM-133, 5-(2,5-Bis(4-fluorophenyl)thiophen-3-yl)-1-methyl-1H-tetrazole] | > 16 | > 16 | > 16 | > 16 | > 16 | > 16 | > 16 | > 16 | > 16 | > 16 | > 16 | > 16 | > 16 | > 16 | > 16 | > 16 | >16 | > 16 | > 16 | > 16 | MIC, E. COLI [10]: > 16 µg/mL; MIC, K. OXYTOCA [11]: > 16 µg/mL; MIC, K. PNEUMONIAE [12]: > 16 µg/mL; MIC, M. MORGANII [13]: > 16 µg/mL; MIC, P. MIRABILIS [14]: > 16 µg/mL; MIC, P. RETTGERI [15]: > 16 µg/mL; MIC, P. STUARTII [16]: > 16 µg/mL; MIC, P. VULGARIS [17]: > 16 µg/mL; MIC, S. LIQUEFACIENS [18]: > 16 µg/mL; MIC, S. MALTOPHILIA [19]: > 16 µg/mL; MIC, S. MARCESCENS [20]: > 16 µg/mL |
| O=C(O)c1sc(-c2ccc(F)cc2)cc1-c1nnn[nH]1 [DNM-141, 5-(4-Fluoro-phenyl)-3-(1H-tetrazol-5-yl)-thiophene-2-carboxylic acid] | > 16 | > 16 | > 16 | > 16 | > 16 | > 16 | > 16 | > 16 | > 16 | > 16 | > 16 | > 16 | > 16 | > 16 | > 16 | > 16 | >16 | > 16 | > 16 | > 16 | MIC, E. COLI [10]: > 16 µg/mL; MIC, K. OXYTOCA [11]: > 16 µg/mL; MIC, K. PNEUMONIAE [12]: > 16 µg/mL; MIC, M. MORGANII [13]: > 16 µg/mL; MIC, P. MIRABILIS [14]: > 16 µg/mL; MIC, P. RETTGERI [15]: > 16 µg/mL; MIC, P. STUARTII [16]: > 16 µg/mL; MIC, P. VULGARIS [17]: > 16 µg/mL; MIC, S. LIQUEFACIENS [18]: > 16 µg/mL; MIC, S. MALTOPHILIA [19]: > 16 µg/mL; MIC, S. MARCESCENS [20]: > 16 µg/mL |
